Consider 13 molecules from patent US10155802B2, “Locally-active anticoagulants and anti-inflammatory agents” (priority 2011, dated 2018).

Type in all cases: biochemical
One assay addresses thrombin (Homo sapiens, UniProt P00734). Kind of assay: Fibrinogen clotting assay (concentration needed to double the clotting time = IC50). The protocol:
The same enzyme kinetic assays were used to determine the inhibitory activities of MH2 and two MH2-derived peptides, MH2-allGS and MH2-GS (Table 4). Clotting assays were carried out to determine the inhibitory activities of the rest of the MH2 peptides by use of the protocols described previously (DiMaio 1990; Taka 2000; Su 2004). The assay employs bovine plasma fibrinogen dissolved at 0.1% in 50 mM Tris-Cl, 100 mM NaCl, 0.1% PEG-8000 at pH 7.6 (i.e. the clotting buffer). In addition to the use of optical densities or ODs (Gill 1989), concentrations of the peptide stock solutions were ranked (and corrected when necessary) by use of quantitative proton NMR spectroscopy (Cavaluzzi 2002). Each assay mixture contained a certain concentration of the peptide, and the reaction was started by the addition of human thrombin to a final concentration of approximately 0.5 nM. Optical absorbance of the assay mixtures was measured at 420 nm using the Spectramax™ plate reader. The onset clotting time was determined as an intersection of the baseline and the tangent line at point of inflection of the clotting curve. The concentration of an MH2 peptide needed to double the clotting time was defined as IC50 (DiMaio 1990) as illustrated in FIG. 4 and summarized in Table 4. The correlation between IC50 values and linker unfolding is similar to that for the BTI series of inhibitors (Table 3). […] (Table 3).

Assay [1] has as its system pooled human plasma. As to the kind of experiment: Prothrombin time (PT, thromboplastin) clotting assay. As to the method:
(§1) Prothrombin (clotting) time (PT) or activated partial thromboplastin (clotting) time (APTT) assays were carried out at certain concentrations of the thrombin inhibitors of the present invention using pooled human plasma with addition of thromboplastin or activated partial thromboplastin to initiate clotting. The assays employed kits from Biopool International (Ventura, Calif., USA) or from Pacific Haemostasis (Middletown, Va., USA) using the procedures supplied by the manufacturer. Briefly, the stock solution of an inhibitor (with the concentration determined using UV-based OD determination, see Gill 1989) is diluted in a buffer of 20 mM HEPES and 150 mM NaCl at pH 7.4 (HBS) to a final volume of 50 μL, to which is added the reconstituted normal plasma (Product #CMS-176172 from Fisher Scientific) in an equal volume. This solution mixture is equilibrated at 37° C. for 2 minutes before 50 μL of the APTT-10XL solution (CMS-022927) is introduced forcibly to ensure proper mixing. This new mixture was incubated at 37° C. for another 5 minutes, which is followed by the addition of 50 μL of 0.02 M […] (Fisher Scientific CMS-022925) pre-warmed at 37° C. For the prothrombin time (PT) assay, an inhibitor is diluted in HBS to a final volume of 25 μL, to which is added the reconstituted control plasma (Fisher Scientific CMS-176172) in an equal volume. This solution mixture is equilibrated at 37° C. for 5 minutes before addition of 100 μL of the thromboplastin solution (CMS-176099) pre-warmed at 37° C. For APTT assays, inhibitory activities of the peptides are expressed as concentrations needed to achieve 50% of the maximum delay in clotting time (MCT50) as compared to the absence of thrombin inhibitors (Maraganore 1989). For PT assays, inhibitory activities are measured as the concentrations of the peptides that prolong the clotting time by 50% (IC50) of that of the normal control plasma (Maraganore 1990). PT and APTT assays were also carried out using slightly modified experimental procedures. Thus, 50 μL of a control plasma (Pacific Hemostasis) solution was added to 100 μL HBS (20 mM HEPES and 150 mM NaCl at pH 7.4) containing varied concentrations of the peptides of this invention. After incubation at 37° C. for 5 min, the mixture was added to 50 μL of the thromboplastin or activated partial thromboplastin reagent. Clotting of the plasma was monitored by change in absorbance at 420 nm using a SpectraMax™ plate reader.

Assay [2] concerns pooled human plasma. Kind of assay: Activated partial thromboplastin time (APTT) clotting assay. To be noted: 37° C.; concentration for 50% of maximum delay in clotting time; read-out: MTC50 (APTT). As to the method: as §1
Assay [3] concerns the target T1, Human α-thrombin (Homo sapiens, UniProt P00734).
T1 construct: Human α-thrombin was purchased from Haemotologic Technologies, Inc., VT, USA; purchased Haemotologic Technologies, Inc., VT, USA
Kind of assay: Inhibition of thrombin-catalyzed hydrolysis of chromogenic substrate S-2366 (inhibition constant Ki). The following applies: Ki.

Assay [4] addresses T1, Human α-thrombin. As to the kind of experiment: Thrombin inhibition constants of monovalent active-site moieties and TWE1 (method not described).
Where [5] appears, read: monovalent binding moieties for the active site of thrombin.

Positions of bridges follow the written chain, without caps; N, C: chain ends. Non-standard residues stand in square brackets, D forms with d. Residues, ends and D or L forms follow the SMILES beside them. Chains are numbered I, II in the order given. No end group written: not given here. *: point of attachment. Benzenesulfonyl(4-tBu) = CC(C)(C)c1ccc(S(=O)(=O)*)cc1; Dansyl = CN(C)c1cccc2c(S(=O)(=O)*)cccc12; dTic = O=C(O)[C@H]1Cc2ccccc2CN1; dPip = O=C(O)[C@H]1CCCCN1 Bounds are passed on as bounds.

As a reminder, the IC50 is the concentration at which inhibition is half-maximal. Low readings indicate greater potency in that assay, high ones weaker potency in that assay. Consider `CC[C@H](C)[C@H](N)C(=O)N[C@@H](CCCNC(=N)N)C(=O)N[C@@H](Cc1ccccc1)C(=O)N[C@H](C(=O)N[C@@H](CC(=O)O)C(=O)NCC(=O)N[C@@H](CCC(=O)O)C(=O)N[C@@H](Cc1c[nH]c2ccccc12)C(=O)N[C@H](C(=O)N[C@@H](Cc1c[nH]c2ccccc12)C(=O)N[C@@H](CC(=O)O)C(=O)N[C@@H](CC(=O)O)C(=O)N[C@@H](C)C(=O)N[C@H](C(=O)N[C@@H](CCCCN)C(=O)N[C@H](C(=O)N[C@@H](Cc1c[nH]c2ccccc12)C(=O)N[C@H](C(=O)N[C@H](C(=O)N[C@H](C(=O)N[C@@H](CCC(=O)O)C(=O)NCC(=O)N[C@@H](CC(=O)O)C(=O)N[C@@H](Cc1ccccc1)C(=O)N[C@@H](CCC(=O)O)C(=O)N[C@@H](CCC(=O)O)C(=O)N[C@H](C(=O)N1CCC[C@H]1C(=O)N[C@@H](CCC(=O)O)C(=O)N[C@@H](CCC(=O)O)C(=O)N[C@@H](Cc1ccc(O)cc1)C(=O)N[C@@H](CC(C)C)C(=O)N[C@@H](CCC(N)=O)C(=O)O)[C@@H](C)CC)[C@@H](C)O)C(C)C)[C@@H](C)O)[C@@H](C)O)[C@@H](C)O)[C@@H](C)O)[C@@H](C)O` [MH2-wZIP6], for which the IC50 against thrombin (IC50 (anti-clotting), T = 37° C.) is 0.053 µM; in the assay on pooled human plasma [1] (37° C., concentration that prolongs clotting time by 50%), below 0.4 µM. For the same molecule, the “concentrations required in PT-APTT curves relative to MH2-GS” value in the assay with pooled human plasma [1] is recorded as “about 2.5 times”. Moreover, the EC50 in the assay on pooled human plasma [2] was found to be 3 µM.

As usually defined, the Ki is the equilibrium dissociation constant of an inhibitor or competing ligand from its target. A higher Ki goes with lower affinity. For the molecule `CC[C@H](C)[C@H](NC(=O)[C@H](CCC(=O)O)NC(=O)[C@H](CCC(=O)O)NC(=O)[C@H](Cc1ccccc1)NC(=O)[C@H](CC(=O)O)NC(=O)CNC(=O)[C@H](CCC(=O)O)NC(=O)[C@@H](NC(=O)[C@H](Cc1c[nH]c2ccccc12)NC(=O)[C@@H](NC(=O)[C@H](Cc1c[nH]c2ccccc12)NC(=O)[C@@H](NC(=O)[C@H](CCCCN)NC(=O)[C@@H](NC(=O)[C@H](C)NC(=O)[C@H](CC(=O)O)NC(=O)[C@H](CC(=O)O)NC(=O)[C@H](Cc1c[nH]c2ccccc12)NC(=O)[C@@H](NC(=O)[C@H](Cc1c[nH]c2ccccc12)NC(=O)[C@H](CCC(=O)O)NC(=O)CNC(=O)[C@H](CC(=O)O)NC(=O)[C@@H](NC(=O)[C@H](Cc1ccccc1)NC(=O)[C@H](CCCNC(=N)N)NC(=O)[C@@H]1CCCN1)[C@@H](C)O)[C@@H](C)O)[C@@H](C)O)[C@@H](C)O)[C@@H](C)O)[C@@H](C)O)C(=O)N1CCC[C@H]1C(=O)N[C@@H](CCC(=O)O)C(=O)N[C@@H](CCC(=O)O)C(=O)N[C@@H](Cc1ccc(O)cc1)C(=O)N[C@@H](CC(C)C)C(=O)N[C@@H](CCC(N)=O)C(=O)O` [BRI-T109], the affinity at Human α-thrombin [3] (FIG. 14A) corresponds to a Ki of 1.45 µM.

In turn, `CC(C)(C)c1ccc(S(=O)(=O)N[C@@H](CCCNC(=N)N)C(=O)N2CCCC[C@@H]2C(=O)N[C@@H](Cc2c[nH]c3ccccc23)C(N)=O)cc1` [Bbs-R-(d-Pip)-W-NH2] came in with an inhibitory constant (Ki) at Human α-thrombin [4] (setting [5]) of 6 ± 1 µM.

Consider `CC[C@H](C)[C@H](N)C(=O)N[C@@H](CCCNC(=N)N)C(=O)N[C@@H](Cc1ccccc1)C(=O)N[C@H](C(=O)N[C@@H](CC(=O)O)C(=O)NCC(=O)N[C@@H](CCC(=O)O)C(=O)NCC(=O)N[C@H](C(=O)N1CCC[C@H]1C(=O)N[C@@H](CC(N)=O)C(=O)N1CCC[C@H]1C(=O)N[C@@H](CCC(=O)O)C(=O)N[C@@H](CO)C(=O)N[C@@H](Cc1c[nH]cn1)C(=O)N[C@@H](CC(N)=O)C(=O)N[C@@H](CC(N)=O)C(=O)NCC(=O)N[C@@H](CC(=O)O)C(=O)N[C@@H](Cc1ccccc1)C(=O)N[C@@H](CCC(=O)O)C(=O)N[C@@H](CCC(=O)O)C(=O)N[C@H](C(=O)N1CCC[C@H]1C(=O)N[C@@H](CCC(=O)O)C(=O)N[C@@H](CCC(=O)O)C(=O)N[C@@H](Cc1ccc(O)cc1)C(=O)N[C@@H](CC(C)C)C(=O)N[C@@H](CCC(N)=O)C(=O)O)[C@@H](C)CC)[C@@H](C)O)[C@@H](C)O` [MH2], for which the IC50 at thrombin (IC50, printed inside the sequence cell of Table 1, temperature not stated) was around 0.014 µM.

`N=C(N)NCCC[C@H](NC(=O)[C@@H]1CCCN1C(=O)[C@H](N)Cc1ccccc1)C(=O)O` [H-dFPR]: the affinity on Human α-thrombin [4] (setting [5]) corresponds to a Ki of 1.57 ± 0.06 µM.

Regarding `CN(C)c1cccc2c(S(=O)(=O)N[C@@H](CCCNC(=N)N)C(=O)N3CCCC[C@@H]3C(N)=O)cccc12` [Dansyl-R-(d-Pip)-NH2] (Dansyl-Arg-[dPip]-NH2), the affinity on Human α-thrombin [4] (setting [5]), expressed as Ki, was 0.37 ± 0.04 µM.

On to `CC(=O)N[C@H](Cc1ccccc1)C(=O)N1CCC[C@H]1C(=O)N[C@@H](CCCNC(=N)N)C(=O)O` [Ac-dFPR], for which, at Human α-thrombin [4] (setting [5]), the Ki is 170 ± 18 µM.

Turning to `CC(C)(C)OC(=O)N[C@H](Cc1ccccc1)C(=O)N1CCC[C@H]1C(=O)N[C@@H](CCCNC(=N)N)C(=O)O` [Boc-dFPR], the affinity at Human α-thrombin [4] (setting [5]), expressed as Ki, was 4.38 ± 0.18 µM.

Molecule `CC(C)(C)c1ccc(S(=O)(=O)N[C@@H](CCCNC(=N)N)C(=O)N2CCCC[C@@H]2C(=O)NCC(N)=O)cc1` [Bbs-R-(d-Pip)-G-NH2] came in with a Ki on Human α-thrombin [4] (setting [5]) of 2.26 ± 0.1 µM.

`CN(C)c1cccc2c(S(=O)(=O)N[C@@H](CCCNC(=N)N)C(=O)N3Cc4ccccc4C[C@@H]3C(N)=O)cccc12` [Dansyl-R-(d-Tic)-NH2] (Dansyl-Arg-[dTic]-NH2) had a Ki at Human α-thrombin [4] (setting [5]) of 0.86 ± 0.06 µM.

On to `CC[C@H](C)[C@H](NC(=O)[C@H](CCC(=O)O)NC(=O)[C@H](CCC(=O)O)NC(=O)[C@H](Cc1ccccc1)NC(=O)[C@H](CC(=O)O)NC(=O)CNC(=O)[C@H](CCC(=O)O)NC(=O)[C@@H](NC(=O)[C@H](Cc1c[nH]c2ccccc12)NC(=O)[C@@H](NC(=O)[C@H](Cc1c[nH]c2ccccc12)NC(=O)[C@@H](NC(=O)[C@H](CCCCN)NC(=O)[C@@H](NC(=O)[C@H](C)NC(=O)[C@H](CC(=O)O)NC(=O)[C@H](CC(=O)O)NC(=O)[C@H](Cc1c[nH]c2ccccc12)NC(=O)[C@@H](NC(=O)[C@H](Cc1c[nH]c2ccccc12)NC(=O)[C@H](CCC(=O)O)NC(=O)CNC(=O)[C@H](CC(=O)O)NC(=O)[C@@H](NC(=O)[C@H](Cc1ccccc1)NC(=O)[C@H](CCCNC(=N)N)NC(=O)[C@@H]1CCCN1C(=O)[C@H](CCCNC(=N)N)NC(=O)[C@@H]1CCCN1C(=O)[C@H](CCC(N)=O)NC(=O)[C@@H](N)Cc1ccccc1)[C@@H](C)O)[C@@H](C)O)[C@@H](C)O)[C@@H](C)O)[C@@H](C)O)[C@@H](C)O)C(=O)N1CCC[C@H]1C(=O)N[C@@H](CCC(=O)O)C(=O)N[C@@H](CCC(=O)O)C(=O)N[C@@H](Cc1ccc(O)cc1)C(=O)N[C@@H](CC(C)C)C(=O)O` [BRI-T207], for which the Ki at Human α-thrombin [3] (T = 37° C., enzyme kinetics, chromogenic substrate) was around 0.4 µM.

At Human α-thrombin [4] (setting [5]), `CC(C)(C)c1ccc(S(=O)(=O)N[C@@H](CCCNC(=N)N)C(=O)N2CCCC[C@@H]2C(N)=O)cc1` [Bbs-R-(d-Pip)-NH2] returned a Ki of 1.13 ± 0.03 µM.

“variant of BTI1: disulfide-bond linkage between Bbs-Arg-(D-Pip)-Gly-Cys and 15N-labelled Cys-(GS)8-GDFEEIPEEYLQ (peptide 1 {Benzenesulfonyl(4-tBu)}-R[dPip]GC; peptide 2 CGSGSGSGSGSGSGSGSGDFEEIPEEYLQ; disulfide I:4-II:1; also: chain 2 15N-labelled) [TWE1]”: in the assay with Human α-thrombin [4] (bivalent inhibitor TWE1), the inhibitory constant (Ki) was determined as 0.0022 ± 0.0004 µM.
